{"source": "paper PMC6916368", "about": "“Cell‐Based Optimization of Covalent Reversible Ketoamide Inhibitors Bridging the Unprimed to the Primed Site of the Proteasome β5 Subunit” (Chemmedchem, 2019)", "key": {"[1]": {"system": "THP‐1 cells", "assay": "Cell viability endpoint assay (Celltiter Blue, 72 h)", "type": "cell-based", "conditions": "Homo sapiens, mean±SD from two independent experiments", "in_short": "(§1)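 Proteasome inhibitors were tested at 1 nM to 10 μM final on 50.000 cells/well in RPMI-1640 with 0.1 % FBS, plated overnight beforehand, at 37 °C and 5 % CO2. Reagent was incubated 120 minutes before the fluorescence read. IC50 came from a sigmoidal fit of technical triplicates, as the mean of two independent experiments.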"}, "[2]": {"system": "MV4‐11 cells", "assay": "Cell viability endpoint assay (Celltiter Blue, 72 h)", "type": "cell-based", "conditions": "Homo sapiens, MV4-11, mean±SD from two independent experiments", "in_short": "as §1"}, "[3]": {"system": "Jurkat cells", "assay": "Cell viability endpoint assay (Celltiter Blue, 72 h)", "type": "cell-based", "conditions": "Homo sapiens, mean±SD from two independent experiments", "in_short": "as §1"}, "[4]": {"assay": "in vitro", "type": "cell-based", "conditions": "human", "description": "Remarkably, in THP‐1 cells the initial cytotoxicity is increasing for 3 compared to 27 until 14 h treatment (9‐fold) but is approaching to the end of the assay.\nTime‐dependent determination of cell viability. For the determination of time‐dependent cytotoxic activity 5.000 cells per well were plated in a white 384 well‐plate in RPMI‐1640 medium supplemented with 0.1 % FBS. Real‐Time Glo MT cell viability assay (Promega) and inhibitor were added to the final concentration and luminescence was determined using a Tecan M1000 microplate reader at the time points indicated (SI chapter 2b, Figure S9–S17, Table S2)."}, "[5]": {"system": "Danio rerio embryos", "assay": "Danio rerio escape response (neurotoxicity) assay, dechorionated embryos", "type": "in vivo", "conditions": "for Survived (embryos of 4): dechorionated", "description": "Danio rerio escape response assay. 24 hours past fertilization embryos were dechorionated and transferred into 96‐well plates containing 198 μL of E3 media at 26 °C. […] Incubation times were 24 h, 48 h and 72 h. Survival of the embryos was determined by visual analysis of heart‐beat. For recording the touch evoked escape response, embryos were transferred to a microscopy slide with cavity that is placed on a SL‐300 LED Soft Light (Dörr, Neu‐Ulm, Germany) under a MotionBlitz EoSens mini1‐1 MC1370 high speed camera (Mikrotron, Unterschleißheim, Germany, Figure S18). An escape response was triggered by a touch stimulus at the trunk of embryos using a small sewing needle, which is slightly blunted. For each embryo, a maximum of 50 stimuli was applied. […] No escape response was determined if only one embryo was alive at 96 hpf. Movement was recorded at 96 hpf at 500 frames per second for 3 seconds using the MotionBlitzDirector 2 software. Determination of the amplitude α defined by the body angle spanned between the head, yolk and tail using a MATLAB‐based software tool and plotted using GraphPad Prism 7.02."}, "[6]": {"target": "T1, β1c subunit of isolated human 20S proteasome (Homo sapiens, UniProt P28072)", "T1 construct": "purchased Enzo Life Sciences", "assay": "Proteasome inhibition assay (20 S Proteasome Assay Kit, Z‐LLE‐AMC)", "type": "biochemical", "conditions": "c = 1 µM, n=1; read-out: Inhibition cCP β1", "in_short": "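Isolated human 20S proteasome (200 ng/well) preincubated 30 min with inhibitor, then 100 μM final Suc-LLVY-AMC (β5c, β5i) or Z-LLE-AMC (β1c) added for 60 min; fluorescence read. Residual activity at 100 nM final (n=3; β5c, β5i) or 1 μM (n=1, incl. β1c). IC50s: technical duplicates, mean of three experiments.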"}, "[7]": {"conditions": "Danio rerio (zebrafish) embryos, in vivo"}, "[8]": {"conditions": "Danio rerio (zebrafish) embryos, in vivo, 24 h, 25 μM"}, "[9]": {"conditions": "Danio rerio (zebrafish) embryos, in vivo, 24 h, 50 µM"}, "[10]": {"conditions": "Danio rerio (zebrafish) embryos, in vivo, 48 h, 25 μM"}, "[11]": {"conditions": "Danio rerio, in vivo, 24 h, 25 µM"}, "[12]": {"conditions": "Danio rerio, in vivo, 24 h, 50 µM"}, "[13]": {"conditions": "Danio rerio, in vivo, 48 h, 25 µM"}}, "data": [{"smiles": "Cc1cc(C)c(Oc2ccccc2)cc1NC(=O)C(=O)[C@H](CC(C)C)NC(=O)[C@H](CC(C)C)NC(=O)[C@H](CC(C)C)NC(=O)c1cc(Cl)ccc1Cl", "note": "[Compound 27, 2,5‐Dichloro‐N‐((S)‐1‐(((S)‐1‐(((S)‐1‐((2,4‐dimethyl‐5‐phenoxyphenyl)amino)‐5‐methyl‐1,2‐dioxo‐hexan‐3‐yl)amino)‐4‐methyl‐1‐oxopentan‐2‐yl)amino)‐4‐methyl‐1‐oxopentan‐2‐yl)benzamide]", "values": [{"measurement": "IC50", "setting": "[1]", "value": "66 ± 1", "unit": "nM"}, {"measurement": "IC50", "setting": "[2]", "value": "7.4 ± 2.6", "unit": "nM"}, {"measurement": "IC50", "setting": "[3]", "value": "11 ± 1", "unit": "nM"}, {"measurement": "IC50 at 13 h", "setting": "[4]", "value": "300 to 600", "unit": "nM"}, {"measurement": "Fold-response", "setting": "[5]; [7]", "value": 29}, {"measurement": "Relative reflexes / Stimuli, Mean", "setting": "[5]; [7]", "value": "0,81"}, {"measurement": "Number of movements per 100 ms, Difference between means", "setting": "[5]; [8]", "value": "0,4767 ± 0,4422"}, {"measurement": "Reflex Duration", "setting": "[5]; [8]", "value": "295,3 ± 28,5 ms"}, {"measurement": "Relative reflexes / Stimuli", "setting": "[5]; [8]", "value": "1,000"}, {"measurement": "mean reflexes per stimuli", "setting": "[5]; [8]", "value": 100, "unit": "%"}, {"measurement": "C-Bend Duration", "setting": "[5]; [9]", "value": "19,2 ± 2,2 ms"}, {"measurement": "Number of movements per 100 ms, Difference between means", "setting": "[5]; [9]", "value": "0,4019 ± 0,4349"}, {"measurement": "Number of total movements, Difference between means", "setting": "[5]; [9]", "value": "16,56 ± 4,371"}, {"measurement": "Relative reflexes / Stimuli", "setting": "[5]; [9]", "value": "1,000"}, {"measurement": "mean reflexes per stimuli", "setting": "[5]; [9]", "value": 100, "unit": "%"}, {"measurement": "Number of movements per 100 ms, Difference between means", "setting": "[5]; [10]", "value": "0,545 ± 0,4127"}, {"measurement": "Reflex Duration", "setting": "[5]; [10]", "value": "403,6 ± 30,9 ms"}, {"measurement": "Relative reflexes / Stimuli", "setting": "[5]; [10]", "value": "0,545"}, {"measurement": "mean reflexes per stimuli", "setting": "[5]; [10]", "value": 55, "unit": "%"}, {"measurement": "C-Bend Amplitude, Difference between means", "setting": "[5]; [11]", "value": "- 2,833 ± 19,93"}, {"measurement": "C-Bend Duration", "setting": "[5]; [11]", "value": "14 ± 0,8165 ms"}, {"measurement": "C-Bend duration, Difference between means", "setting": "[5]; [11]", "value": "-5,667 ± 1,826"}, {"measurement": "Number of total movements, Difference between means", "setting": "[5]; [11]", "value": "- 2,611 ± 3,6"}, {"measurement": "Reflex Duration", "setting": "[5]; [11]", "value": "295,3 ± 28,53 ms"}, {"measurement": "Reflex Duration, Difference between means", "setting": "[5]; [11]", "value": "- 95,33 ± 66,93"}, {"measurement": "C-Bend Amplitude, Difference between means", "setting": "[5]; [12]", "value": "- 7,333 ± 15,18"}, {"measurement": "C-Bend Duration", "setting": "[5]; [12]", "value": "19,17 ± 2,212 ms"}, {"measurement": "C-Bend duration, Difference between means", "setting": "[5]; [12]", "value": "- 0,5 ± 2,458"}, {"measurement": "Reflex Duration", "setting": "[5]; [12]", "value": "799 ± 91,81 ms"}, {"measurement": "Reflex Duration, Difference between means", "setting": "[5]; [12]", "value": "408,3 ± 96,75"}, {"measurement": "C-Bend Amplitude, Difference between means", "setting": "[5]; [13]", "value": "- 9,167 ± 17,34"}, {"measurement": "C-Bend Duration", "setting": "[5]; [13]", "value": "15,56 ± 0,5031 ms"}, {"measurement": "C-Bend duration, Difference between means", "setting": "[5]; [13]", "value": "-4,111 ± 1,464"}, {"measurement": "Number of total movements, Difference between means", "setting": "[5]; [13]", "value": "1,889 ± 3,151"}, {"measurement": "Reflex Duration", "setting": "[5]; [13]", "value": "403,6 ± 30,92 ms"}, {"measurement": "Reflex Duration, Difference between means", "setting": "[5]; [13]", "value": "12,89 ± 59,4"}, {"measurement": "overall survival at low doses", "setting": "[5]; dechorionated embryos", "value": 58, "unit": "%"}, {"measurement": "Survived (embryos of 4)", "setting": "[5]; 25 µM, 24 h", "value": 2}, {"measurement": "Survived (embryos of 4)", "setting": "[5]; 25 µM, 48 h", "value": 2}, {"measurement": "Survived (embryos of 4)", "setting": "[5]; 50 µM, 24 h", "value": 3}, {"measurement": "inhibition at 1 µM", "setting": "[6]", "value": -48, "unit": "%"}]}]}
